The record followed here is article PMC10574094, “Discovery of a SHP2 Degrader with In Vivo Anti-Tumor Activity” (Molecules, 2023).

Residues, ends and D or L forms follow the SMILES beside them. *: point of attachment. Cbz = O=C(OCc1ccccc1)* Where only a bound is given, the exact number is not on record here.

One assay has as its target T1, SHP2 (Homo sapiens, UniProt Q06124).
T1 sequence (Q06124 1-593): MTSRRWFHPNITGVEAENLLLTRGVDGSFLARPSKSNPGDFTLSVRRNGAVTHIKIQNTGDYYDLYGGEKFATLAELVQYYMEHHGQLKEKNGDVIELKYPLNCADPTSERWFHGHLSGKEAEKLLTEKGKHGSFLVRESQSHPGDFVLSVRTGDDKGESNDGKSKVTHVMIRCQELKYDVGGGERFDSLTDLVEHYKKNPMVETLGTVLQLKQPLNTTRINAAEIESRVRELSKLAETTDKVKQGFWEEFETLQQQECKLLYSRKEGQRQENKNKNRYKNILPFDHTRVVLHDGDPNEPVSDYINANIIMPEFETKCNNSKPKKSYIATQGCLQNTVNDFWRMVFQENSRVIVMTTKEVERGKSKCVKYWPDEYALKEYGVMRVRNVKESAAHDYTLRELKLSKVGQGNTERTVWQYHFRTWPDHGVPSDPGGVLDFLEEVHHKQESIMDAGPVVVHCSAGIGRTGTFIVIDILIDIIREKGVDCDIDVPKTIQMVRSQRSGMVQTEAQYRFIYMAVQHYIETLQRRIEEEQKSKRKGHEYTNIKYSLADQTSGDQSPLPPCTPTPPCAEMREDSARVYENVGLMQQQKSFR
The experiment in a line: SHP2 degradation by Western blotting in HEK293 cells. In kind it is cell-based. Conditions: for effect on P9-induced SHP2 degradation: HEK293, 16 h, 250 nM P9 in combination with 1 µM 3, 10 µM MG132, 1 µM MLN4924, 40 µM VHL-2 or 40 µM Lenalidomide; for SHP2 degradation (in words) / Degradation at 10 μM / Degradation at 1 μM: HEK293 cells; for SHP2 degradation (in words): 1 and 10 µM; for Degradation at 10 μM / Degradation at 1 μM: 16 h treatment. Also on record: endogenous in cells; host or cells: HEK293. As for the experimental part: HEK293, SKBR3, U2OS, MCF7 and A549 cells were grown in DMEM supplemented with 10% FBS, penicillin (50 units/mL), and streptomycin (50 μg/mL) in a 37 °C incubator containing 5% CO2. […] For western-blot analysis, protein samples were separated by SDS-PAGE, transferred to nitrocellulose membranes, and incubated overnight at 4 °C with corresponding primary antibodies diluted in 5% BSA in phosphate-buffered saline Tween (PBST). SuperSignal™ West Pico PLUS (PI34580; Thermo Scientific) was used to visualize the antibodies in the bioanalytical imaging system (Azure Biosystems c500). […] Anti-PTP1B (ab244207) antibody was purchased from Abcam. For colony formation assay, a total of approximately 200–500 cells were seeded to each well in a 12-well plate.
Supplemental Figures, Schemes, and Tables:
Figure S1. Western blots of degradation assay for PROTAC screening. (A) Degradation assay of
compo un ds i n Table 1 at 1 μM fo r 16 hours in H EK29 3 cells. (B) Degradation assay of compounds in Table
1 at 10 μM for 16 hours in HEK293 cells. (C) Degradation assay of compounds in Table 2 at 1 μM for 16

The target of the next assay is T2, full-length SHP2 (1-528) (Homo sapiens, UniProt Q06124).
T2 construct: The SHP2 protein (Aa 1–528) was cloned into a pET-21a(+) vector; His; made in house; host or cells: E. coli BL21(DE3)
T2 sequence (Q06124 1-528): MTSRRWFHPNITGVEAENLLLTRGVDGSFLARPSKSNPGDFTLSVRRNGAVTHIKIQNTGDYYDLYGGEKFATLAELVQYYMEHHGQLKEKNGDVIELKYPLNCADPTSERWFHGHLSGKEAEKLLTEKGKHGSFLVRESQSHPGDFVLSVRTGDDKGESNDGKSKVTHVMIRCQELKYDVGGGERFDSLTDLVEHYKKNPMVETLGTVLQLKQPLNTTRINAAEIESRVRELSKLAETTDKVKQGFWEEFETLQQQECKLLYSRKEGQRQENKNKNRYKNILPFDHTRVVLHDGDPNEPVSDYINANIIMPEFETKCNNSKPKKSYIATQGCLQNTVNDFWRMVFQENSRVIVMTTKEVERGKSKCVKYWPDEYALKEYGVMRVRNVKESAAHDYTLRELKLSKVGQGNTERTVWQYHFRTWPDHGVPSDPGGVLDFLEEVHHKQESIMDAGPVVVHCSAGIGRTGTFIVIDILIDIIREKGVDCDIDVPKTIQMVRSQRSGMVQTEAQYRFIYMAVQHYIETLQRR
The experiment in a line: SHP2 allosteric inhibition assay (DiFMUP substrate). Conditions: full length SHP2, enzymatic assay. In kind it is biochemical. As for the experimental part: The SHP2 protein (Aa 1–528) was cloned into a pET-21a(+) vector. Bacterial BL21(DE3) (Novagen) was used as an expression host, and the induction of protein expression was carried out in LB media with 1 mM IPTG at 18 °C overnight. Cell pellets were stored at −80 °C for subsequent protein purification. Protein purification was conducted at 4 °C. Frozen cell pellets were lysed by sonication in 40 mL cold lysis buffer (50 mM Tris-HCl, pH 8.0, 150 mM NaCl, 5 mM imidazole, and 1 mM PMSF) per liter cell pellet. Cell lysates were clarified by centrifuging for 15 min at 6000 rpm. The supernatant was incubated with HisPur Ni-NTA resin (Thermo Scientific, Waltham, MA, USA) for 2 h, and then packed onto a column and washed with 50 resin volume of buffer A (50 mM Tris-HCl, pH 8.0, 500 mM NaCl, 5 mM imidazole). The HIS-tagged proteins were eluted with Buffer B (50 mM Tris-HCl, pH = 8.0, 500 mM NaCl, 300 mM imidazole,). Pooled HIS-protein-containing fractions were concentrated, loaded onto a HiLoad 26/600 Superdex 75 column (GE Healthcare Biosciences, Piscataway, NJ, USA), and eluted with storage buffer (50 mM Tris-HCl, pH 8.0, 150 mM NaCl, 1 mM DTT, 10% glycerol). Proteins used for inhibition assays were purified using Ni-NTA resin (Qiagen, Hilden, Germany) followed by size exclusion column chromatography (ÄKTA pure, Cytiva, Marlborough, MA, USA) and the purity was determined to be >95% by SDS-PAGE and Coomassie staining. The protein was aliquoted and stored at −80 °C.
The catalytic activity of SHP2 (1-528) was assayed with 6,8-Difluoro-4-Methylumbelliferyl Phosphate (DiFMUP, Invitrogen, cat# D6567) as a substrate in 3,3-Dimethylglutaric acid (DMG) buffer (50 mM DMG, pH 7.0, 1 mM EDTA, 18 mM NaCl, 0.01% Triton X-100) at 25 °C. To determine the IC50 values, the assays were performed in 96-well plates (Corning Costar 3915). Series diluted compounds were incubated with 0.5 nM of SHP2 and 0.5 μM of peptide IRS1_pY1172(dPEG8)pY1222 (sequence H2N-LN(pY)IDLDLV(dPEG8)LST(pY)ASINFQK-amide). After 30 min incubation at room temperature, the substrate DiFMUP was added to the reaction (200 μM final concentration, total reaction volume is […]) and incubated at 25 °C for 10 min. The reaction was then quenched by adding 40 μL of 160 μM bpV(Phen) (Sigma–Aldrich, cat# SML0889) solution. The fluorescence signal was monitored with a CLARIOstar Plus Microplate Spectrophotometer (BMG Labtech) using excitation and emission wavelengths of 340 and 450 nm, respectively. The inhibitordose-response curves were analyzed using normalized IC50 regression curve fitting with control-based normalization. Data were fitted using Prism GraphPad 9.2.0.

Turning to `Nc1cccc2c1CN(C1CCC(=O)NC1=O)C2=O` (stereo not drawn) [lenalidomide, reference compound], at SHP2, the “effect on P9-induced SHP2 degradation” value was “did not affect the SHP2 degradation induced by P9”.

On full-length SHP2 (1-528), `Cc1ncsc1-c1ccc([C@H](C)NC(=O)[C@@H]2C[C@@H](O)CN2C(=O)[C@@H](NC(=O)CCCCCCCCCNC(=O)CCCCCC2(CN)CCN(c3cnc(Sc4cccc(Cl)c4Cl)c(N)n3)CC2)C(C)(C)C)cc1` [SC9, (2S,4R)-1-((S)-2-(10-(6-(1-(6-amino-5-((2,3-dichlorophenyl)thio)pyrazin-2-yl)-4-(aminomethyl)piperidin-4-yl)hexanamido)decanamido)-3,3-dimethylbutanoyl)-4-hydroxy-N-((S)-1-(4-(4-methylthiazol-5-yl)phenyl)ethyl)pyrrolidine-2-carboxamide] had an IC50 of 132 ± 8.7 nM. Moreover, on SHP2, the “SHP2 degradation (in words)” value is “negligible to modest degradation” and the “Degradation at 10 μM” value was 25%. In the case of `NCC1(CCCCCC(=O)O)CCN(c2cnc(Sc3cccc(Cl)c3Cl)c(N)n2)CC1` [compound 4], 90 nM corresponded to half-maximal inhibition against full-length SHP2 (1-528) (IC50).

`Cc1ncsc1-c1ccc([C@H](C)NC(=O)[C@@H]2C[C@@H](O)CN2C(=O)[C@@H](NC(=O)CCOCCOCCOCCOCCNC(=O)CCCCCC2(CN)CCN(c3cnc(Sc4cccc(Cl)c4Cl)c(N)n3)CC2)C(C)(C)C)cc1` [P4, (2S,4R)-1-((S)-25-(1-(6-amino-5-((2,3-dichlorophenyl)thio)pyrazin-2-yl)-4-(aminomethyl)piperidin-4-yl)-2-(tert-butyl)-4,20-dioxo-7,10,13,16-tetraoxa-3,19-diazapentacosanoyl)-4-hydroxy-N-((S)-1-(4-(4-methylthiazol-5-yl)phenyl)ethyl)pyrrolidine-2-carboxamide] gave an IC50 on full-length SHP2 (1-528) of 156 ± 15.8 nM. Also, on SHP2, the “SHP2 degradation (in words)” value was “did not induce significant degradation of SHP2”, the “Degradation at 1 μM” value is under 10% and the “Degradation at 10 μM” value is under 10%. Consider `Cc1ncsc1-c1ccc([C@H](C)NC(=O)[C@@H]2C[C@@H](O)CN2C(=O)[C@@H](NC(=O)CCCCCCCNC(=O)CCCCCC2(CN)CCN(c3cnc(Sc4cccc(Cl)c4Cl)c(N)n3)CC2)C(C)(C)C)cc1` [SC7, (2S,4R)-1-((S)-2-(8-(6-(1-(6-amino-5-((2,3-dichlorophenyl)thio)pyrazin-2-yl)-4-(aminomethyl)piperidin-4-yl)hexanamido)octanamido)-3,3-dimethylbutanoyl)-4-hydroxy-N-((S)-1-(4-(4-methylthiazol-5-yl)phenyl)ethyl)pyrrolidine-2-carboxamide], for which the IC50 on full-length SHP2 (1-528) was determined as 124 ± 21.6 nM. On SHP2, the “SHP2 degradation (in words)” value is on record as “negligible to modest degradation”, the “Degradation at 1 μM” value is under 10% and the “Degradation at 10 μM” value amounted to 15%.

Compound `Cc1ncsc1-c1ccc([C@H](C)NC(=O)[C@@H]2C[C@@H](O)CN2C(=O)[C@@H](NC(=O)CCCCCCCCN2CCN(C(=O)CCCCCC3(CN)CCN(c4cnc(Sc5cccc(Cl)c5Cl)c(N)n4)CC3)CC2)C(C)(C)C)cc1` [P8, (2S,4R)-1-((S)-2-(9-(4-(6-(1-(6-amino-5-((2,3-dichlorophenyl)thio)pyrazin-2-yl)-4-(aminomethyl)piperidin-4-yl)hexanoyl)piperazin-1-yl)nonanamido)-3,3-dimethylbutanoyl)-4-hydroxy-N-((S)-1-(4-(4-methylthiazol-5-yl)phenyl)ethyl)pyrrolidine-2-carboxamide] yielded a half-maximal inhibitory concentration (IC50) at full-length SHP2 (1-528) of 104 ± 9.3 nM. On to `Cc1ncsc1-c1ccc([C@H](C)NC(=O)[C@@H]2C[C@@H](O)CN2C(=O)[C@@H](NC(=O)CCCCCCCCCCN2CCN(C(=O)CCCCCC3(CN)CCN(c4cnc(Sc5cccc(Cl)c5Cl)c(N)n4)CC3)CC2)C(C)(C)C)cc1` [P10, (2S,4R)-1-((S)-2-(11-(4-(6-(1-(6-amino-5-((2,3-dichlorophenyl)thio)pyrazin-2-yl)-4-(aminomethyl)piperidin-4-yl)hexanoyl)piperazin-1-yl)undecanamido)-3,3-dimethylbutanoyl)-4-hydroxy-N-((S)-1-(4-(4-methylthiazol-5-yl)phenyl)ethyl)pyrrolidine-2-carboxamide], for which, on full-length SHP2 (1-528), it took 111 ± 8.2 nM to reach half-maximal inhibition (IC50). Take `CC(C)C[C@@H](C=O)NC(=O)[C@H](CC(C)C)NC(=O)[C@H](CC(C)C)NC(=O)OCc1ccccc1` [MG-132, reference compound] (Cbz-Leu-Leu-Leu-aldehyde): the “effect on P9-induced SHP2 degradation” value at SHP2 is “markedly reduced the extent of SHP2 degradation”. At full-length SHP2 (1-528), `Cc1ncsc1-c1ccc([C@H](C)NC(=O)[C@@H]2C[C@@H](O)CN2C(=O)[C@@H](NC(=O)CCCCCCCN2CCN(C(=O)CCCCCC3(CN)CCN(c4cnc(Sc5cccc(Cl)c5Cl)c(N)n4)CC3)CC2)C(C)(C)C)cc1` [P7, (2S,4R)-1-((S)-2-(8-(4-(6-(1-(6-amino-5-((2,3-dichlorophenyl)thio)pyrazin-2-yl)-4-(aminomethyl)piperidin-4-yl)hexanoyl)piperazin-1-yl)octanamido)-3,3-dimethylbutanoyl)-4-hydroxy-N-((S)-1-(4-(4-methylthiazol-5-yl)phenyl)ethyl)pyrrolidine-2-carboxamide] returned an IC50 of 119 ± 25.4 nM. For the compound `NS(=O)(=O)OC[C@@H]1C[C@@H](n2ccc3c(N[C@H]4CCc5ccccc54)ncnc32)C[C@@H]1O` [MLN-4924, reference compound], the “effect on P9-induced SHP2 degradation” value on SHP2 was “markedly reduced the extent of SHP2 degradation”.
